# Data published in US20100126680A1, “Method For Controlling Enzymatic Decomposition Of Peroxide and Products Thereof” (BUCKMAN LABORATORIES INTERNATIONAL, INC., priority 2008, published 2010).
# Experiments:
# Assay type in all cases: biochemical
# [1] = tested on: commercial catalase TERMINOX® Ultra 50L; assay: Filter paper float test of catalase de-activation using distilled water; conditions: for Float time: 20 μL catalase/1000 mL distilled water, no-inhibitor float time 75 sec
# Protocol: (§1) A filter paper float test was carried out to study catalase deactivation performance of aldehyde-functional polymers and a conventional catalase inhibitor on bleached paper. In a typical float test, a one-inch square piece of filter paper was saturated with 50% H2O2 solution. With excess H2O2 solution being removed, the treated filter paper was submerged in 200 mL aqueous catalase solution or 200 mL de-inking white water. The catalase solution was prepared by diluting a commercial catalase solution with either distilled water or papermaking white water. Various amounts of the catalase inhibitors being studied were mixed with the catalase solution or de-inking white water for five minutes before the treated filter paper was submerged in the catalase solution or de-inking white paper. Controls also were carried out in which no catalase inhibitor was added to the catalase solution or de-inking paper before the treated filter was submerged therein. The time that was required for the filter paper to rise to the solution surface was recorded and used to determine H2O2 decomposition rate. A longer time for the filter paper to rise to the surface indicated a slower H2O2 decomposition rate.
# Catalase de-activation performance of a glyoxalated polyacrylamide (G-PAM) and glutaraldehyde was tested with the filter paper float test using distilled water. As indicated, in a typical test, a square piece of filter was first saturated with 50% H2O2 solution. Various amounts of the two types of catalase inhibitors being studied in this example were mixed with the catalase solution prepared with distilled water for five minutes before the treated filter paper was submerged in the catalase solution. Once the treated filter paper was submerged in catalase solution, catalase started decomposing H2O2 molecules, releasing O2 gas. The faster the H2O2 decomposition rate, the faster the O2 gas being generated, and the shorter the time required for the filter paper to rise to the solution surface. On the other hand, the presence of catalase inhibition will slow down the H2O2 decomposition rate, resulting in longer periods of time for the filter paper to rise to the surface.
# Table 1 presents the results of the float tests conducted with 20 μL commercial catalase TERMINOX® Ultra 50L diluted by 1000 mL distilled water to prepare the catalase solution. As indicated, glutaraldehyde and glyoxalated polyacrylamide were studied as the catalytic inhibitors. Glutaraldehyde was chosen as a control for this example. Large quantities of glutaraldehyde are commercially used as a catalase inhibitor. BUBOND® 387 was the source of the glyoxalated polyacrylamide.
# [2] = tested on: commercial catalase TERMINOX® Ultra 50L; assay: Filter paper float test of catalase de-activation using papermaking white water; conditions: 500 ppm inhibitor
# Protocol: as §1
# To test the effect of dissolved and colloidal substances on catalase inhibitors, float tests were also carried out with the white water obtained from a newsprint papermaking mill. […]
# [3] = tested on: wild catalase in de-inking white water; assay: Filter paper float test of catalase de-activation using de-inking white water
# Protocol: as §1
# As an initial observation made with respect to the controls that contained no catalase inhibitor, a significant difference was observed between the papermaking and de-inking sources of white water with respect to wild catalase content. […] The presence of wild catalase in the de-inking white water was confirmed by the float tests. It only took about 40 seconds for the peroxide-treated filter paper to rise to the surface of the de-inking white water that had not been treated with catalase inhibitor (e.g., see Control A, Table 4 below).
# Float tests were also carried out with the de-inking white water obtained from a papermaking mill. Various amounts of the catalase inhibitors being studied for this example were mixed with the de-inking white water for five minutes before the treated filter paper was submerged in the de-inking white water. […]
smiles,measurement,setting,value
O=CCCCC=O [Glutaraldehyde],Float time,[1]; 50 ppm inhibitor,80 s
same,Float time,[1]; 100 ppm inhibitor,72 s
same,Float time,[1]; 150 ppm inhibitor,88 s
same,Float time,[1]; 200 ppm inhibitor,103 s
same,Float time,[1]; 300 ppm inhibitor,117 s
same,Float time,[1]; 500 ppm inhibitor,128 s
same,filter paper float time,"[1]; below 100 ppm inhibitor, distilled water catalase solution",around 75 seconds
same,Float time,"[2]; 10 μL catalase/1000 mL papermaking white water, no-inhibitor float time 197 sec",301 s
same,Float time,"[2]; 20 μL catalase/1000 mL papermaking white water, no-inhibitor float time 67 sec",130 s
same,Float time,"[3]; Dosage 2000 ppm, de-inking white water pre-treated with 1000 ppm BUSAN® 1078 bactericide for 30 minutes, no-inhibitor Control B 35 sec",40 s
same,Float time,"[3]; Dosage 2000 ppm, de-inking white water, no-inhibitor Control A 39 sec",68 s
same,Float time,"[3]; Dosage 4000 ppm, de-inking white water pre-treated with 1000 ppm BUSAN® 1078 bactericide for 30 minutes, no-inhibitor Control B 35 sec",37 s
